Source: patent publication US20240299380A1, “APPLICATION OF COMPOUND IN PREPARATION OF DRUG FOR TREATING MYELOFIBROSIS AND RELATED SYMPTOMS/SIGNS THEREOF, AND USE OF COMPOUND” (Betta Pharmaceuticals Co., Ltd, priority 2021, published 2024)

Columns and labels:
[1] = system: IL-6 secretion in THP-1 cells; test: IL-6 ELISA in THP-1 cell supernatants following LPS stimulation; format: cell-based, Human
Method: The Human IL-6 Valukine ELISA kit (purchased from R&D) was used to measure the IL-6 content in the cell supernatants by ELISA method in this example. The experimental procedures shown below were conducted to determine the effect of compound 1 on IL-6 secretion in THP-1 cell supernatants following LPS stimulation.
THP-1 cells were cultured in RPMI 1640 medium containing 1% PS and 10% FBS and 2-Mercaptoethanol (IX). The cells were incubated in a humidified incubator with 5% carbon dioxide (CO2) at 37° C. […]
• a) 50 μL medium was added to each well. • b) 100 μL CTG reagent (CelltiterGlo kit) was added to each well, and the plate was placed on a orbital shaker for 2 minutes, then placed at room temperature in dark conditions for 30 minutes, and then transferred to CTG plate. • c) The luminescence values were recorded with Envision.
IC50 (The half maximal inhibitory concentration) was calculated using GraphPad Prism 8 software with the following nonlinear fitting formula: […]
[formula] • b) IL-6 detection: X: Log value of Compound concentration, Y: IL-6 concentration (pg/mL) • IL-6 concentration was calculated based on the linear equation of standard dilution concentration and wavelength detection. […]

[2] = system: SET-2 cells with JAK2V617F activation mutation; test: CTG cell proliferation assay, SET-2 cells; format: cell-based, human
Method: (§1) The effects of compound 1 on proliferation of human myeloproliferative tumor cells HEL and SET-2 cells with JAK2V617F activation mutation were tested using CTG assay in this example to evaluate half inhibitory rate (IC50) of compound 1 on HEL and SET-2 cell proliferation.
(§2) • a) HEL cells were cultured in RPMI 1640 medium containing 1% PS and 10% FBS. […] The cells were incubated in a humidified incubator with 5% carbon dioxide (CO2) at 37° C.
(§3) • a) Cells were harvested upon reaching a certain density. • b) Cells were resuspended in corresponding medium with a certain density. • c) 30 μL of cell suspension was added into each well of a 384-well plate. For HEL, the density was 1800 cells/well, and for SET-2, 2000 cells/well. • d) Cells were incubated overnight in a humidified incubator with 5% CO2 at 37° C.
(§4) The compounds were diluted with DMSO 6.67 fold from 20 mM to 3 mM, then 3-fold serial dilutions were conducted to make 10 concentrations for each compound. […]
(§5) • a) 30 μL CTG reagent (CelltiterGlo kit) was added to each well, and the plate was subjected to orbital shaking for 2 minutes, then incubated at room temperature in the dark for 30 minutes. • b) Luminescence values were obtained using Envision.
(§6) IC50 (the half maximal inhibitory concentration) was calculated with GraphPad Prism 8 software and following nonlinear fitting formula: […]

[3] = system: HEL cells with JAK2V617F activation mutation; test: CTG cell proliferation assay, HEL cells; format: cell-based, human
Method: as §1, §2, §3, §4, §5, §6

[4] = system: NF-κB transcriptional activity; test: NF-κB reporter gene assay in HEK293 cells; format: cell-based
Method: In present example, reporter gene assay was used to determine the inhibitory effect of compound 1 on NF-κB transcriptional activity in HEK293 cells, to evaluate the effect of the compound on NF-κB transcriptional activity.
• a) All compounds were 3-fold serial diluted from 10 mM for 10 doses in DMSO. • b) The positive compound CDDO-Me was 3-fold serial diluted from 10 mM for 10 doses in DMSO. • c) 1000×positive control ([…]) and 1000×negative control (100% DMSO) were prepared. • d) Compounds plate was sealed and shaked for 5 minutes.
• a) All cells were cultured following ATCC recommendations. […] Digestion was terminated with complete culture medium, and the cells were collected and counted. • d) A total of 6*10^6 HEK293T cells were seeded into a 100 mm cell culture dish. • e) The cells were then incubated overnight in a 5% CO2 incubator. […]
• a) The Britelite plus reagent were allowed to reach room temperature. • b) The 384-well assay plates (prepared at Step 3) were allowed to reach room temperature. • c) 25 μL Britelite plus reagent was added to each well of 384-well assay plate. • d) Luminescence values were recorded with Envision.
[formula] • RLU: relative luminescence units • RLUPositive: The average luminescence value of the blank controls. • RLUvehicle: The average luminescence value of the negative controls. • 5.2 IC50 calculating and compound dose-response curves fitting: […]

[5] = Homo sapiens, 72 h, CTG, read-out: IC50 for cell proliferation inhibition

IC50 ([1]; Homo sapiens, THP-1 cells, LPS 4 μg/mL, read-out: IC50 for inhibition of IL-6 secretion in THP-1 cells): 22.4 nM
IC50 ([4]; Homo sapiens, HEK293 cells with NF-κB reporter gene, 8 ng/ml TNFα, 16-20 h, read-out: IC50 for the inhibition of NF-κB transcriptional activity): 148 nM
Compound: Cc1nc2ncc(-c3cn(C)c(=O)c4[nH]ccc34)nc2n1Cc1ccc(C(F)(F)F)cc1 [Compound 1, 6-methyl-4-(2-methyl-1-(4-(trifluoromethyl)benzyl)-1H-imidazo[4,5-b]pyrazin-6-yl)-1H-py rrolo[2,3-c]pyridin-7(6H)-one]
inhibition of IL-6 secretion (in words) ([1]; THP1 monocytes, LPS): significantly inhibited
inhibitory effect on proliferation of SET-2 cells (in words) [2]: good inhibitory effect
IC50 [2, 5]: 104 nM
inhibitory effect on proliferation of HEL cells (in words) [3]: good inhibitory effect
IC50 [3, 5]: 154 nM
inhibition of the transcriptional activity of NF-κB (in words) ([4]; HEK293 cells stably transfected with the NF-κB reporter gene): significantly inhibited
